Test results: patent US20170348280A1 (priority 2016, published 2017)
Read-outs that look alike come from different tables or passages of the source.

Tests used:
[1] = test system: ECM deposition of collagen type IV by AoSMC; experiment: ECM deposition of collagen type IV by AoSMC (immunoassay); assay type: cell-based, human; details: for increased collagen IV deposition: compared to 1.25 μM; for decrease in ascorbyl palmitate dependent ECM deposition of collagen IV / reduction of ascorbic acid dependent deposition of collagen type IV to the ECM: 50 μM nifedipine
Method: (§1) Both cell cultures were maintained in DMEM medium (ATCC) containing antibiotics and 5% fetal bovine serum (FBS, ATCC). All cell cultures were maintained at 37° C. and 5% CO2 atmosphere. Cell viability was monitored with MTT assay.
(§2) Collagen production by human cultured cells: In the case of these experiments, DF or AoSMC, at 5th to 8th passages, were seeded on collagen type I-covered plastic plates (Becton-Dickinson, collagen I isolated from rat tail tendon) at density of 25,000/cm^2 and grown to confluence for 5-7 days. […] Tested compounds were added to cells at indicated concentrations for 72 h in DMEM supplemented with 2% FBS and cell-produced extracellular matrix was exposed by sequential treatment with 0.5% Triton X100 and 20 mM ammonium […] in phosphate buffered saline (PBS, Life Technologies) for 3 min each at room temperature. After four washes with PBS, ECM layers were treated with 1% bovine serum albumin (BSA) in PBS for one hour at room temperature and immediately used in experiments.
(§3) Collagen and beta-actin immunoassays: Immunoassays were done by sequential incubation with primary monoclonal antibodies specific to human collagen type I or IV or human beta-actin in 1% BSA/PBS for 2 hours followed by 1 hour incubation with secondary goat anti-mouse IgG antibodies labeled with horse radish peroxidase (HRP).
(§4) Differences between samples were estimated with a two-tailed Student's t-test using MedCalc software (Mariakerke, Belgium) and accepted as significant at p levels less than 0.05.

[2] = test system: ascorbate accumulation inside human AoSMC; experiment: Intracellular ascorbic acid assay in AoSMC; assay type: cell-based
Method: Cells were washed briefly three times with ice-cold PBS on ice and incubated with 300 μl of 0.1% saponin in 1% ethanol in PBS for 10 min on an orbit mixer. Samples were collected to Eppendorf tubes and centrifuged at 13,000×g for 5 min. Supernatants were used in an ascorbic acid assay (Ascorbic Acid Colorimetric Assay Kit […], BioVision) in accordance with the manufacturer's protocol. […] Differences between samples were estimated with a two-tailed Student's t-test using MedCalc software ([…], Belgium) and accepted as significant at p levels less than 0.05.

cultured fibroblasts = experiment: Cell viability / cytotoxicity (MTT assay), fibroblasts; assay type: cell-based, human; details: data not shown
Method: as §1

smooth muscle cells = experiment: Cell viability / cytotoxicity (MTT assay), smooth muscle cells; assay type: cell-based, human; details: cultured smooth muscle cells; data not shown
Method: as §1

[3] = test system: ECM deposition of collagen type I by cultured AoSMC; experiment: ECM deposition of collagen type I by cultured AoSMC (immunoassay); details: for reduction of ascorbyl palmitate dependent deposition of collagen type 1 to the ECM / reduction of ascorbic acid dependent deposition of collagen type 1 to the ECM: 50 μM nifedipine
[4] = test system: intracellular content of collagen type I in AoSMC; experiment: Intracellular content of collagen type I in AoSMC (immunoassay); assay type: cell-based, human; details: for reduction of ascorbate-dependent intracellular collagen type 1 synthesis: 50 μM nifedipine; for reduction of ascorbate-dependent collagen type 1 synthesis: nifedipine
Method: as §1, §2, §3, §4

[5] = test system: intracellular content of beta-Actin in AoSMC; experiment: Intracellular content of beta-actin in AoSMC (immunoassay); assay type: cell-based, human; details: for reduction of ascorbate-dependent beta-actin intracellular content compared to control: 50 μM nifedipine; for reduction of intracellular beta actin content: nifedipine
Method: as §1, §2, §3, §4

[6] = test system: intracellular content of collagen type I normalized to beta actin content in aortic smooth muscle cells; experiment: Intracellular collagen type I normalized by beta actin content in AoSMC; assay type: cell-based, human; details: for reduction of intracellular content of collagen type I normalized to beta actin content compared to the control: 50 μM nifedipine
Method: as §2, §3, §4

[7] = cited from earlier work
[8] = test system: collagen type I ECM deposition by cultured human skin fibroblasts; experiment: Collagen type I ECM deposition by cultured human skin fibroblasts (immunoassay); assay type: cell-based; details: channel blocker alone, without ascorbate; 72 h; FIG. 1A-1F
Method: as §1, §2
Collagen and beta-actin immunoassays: Immunoassays were done by sequential incubation with primary monoclonal antibodies specific to human collagen type I or IV or human beta-actin in 1% BSA/PBS for 2 hours followed by 1 hour incubation with secondary goat anti-mouse IgG antibodies labeled with horse radish peroxidase (HRP). […]

[9] = test system: human vascular smooth muscle cells and fibroblasts; details: cited from earlier work
[10] = 100 μM ascorbic acid compared to 25 μM ascorbic acid
[11] = 400 μM ascorbic acid compared to 25 μM ascorbic acid

CCCCCCCCCCCCCCCC(=O)OC[C@H](O)[C@H]1OC(=O)C(O)=C1O [ascorbyl palmitate]
increased collagen IV deposition ([1]; 2.5 μM ascorbyl palmitate alone): 113%
increased collagen IV deposition ([1]; 5 μM ascorbyl palmitate alone): 144%
increased collagen IV deposition ([1]; 10 μM ascorbyl palmitate alone): 138%
increased collagen IV deposition ([1]; 20 μM ascorbyl palmitate alone): 168%
higher intracellular levels of ascorbic acid compared to the highest concentration of ascorbic acid used (400) ([2]; supplementation with 20 ascorbyl palmitate (unit not given)): 10 ×
levels found to be cytotoxic (cultured fibroblasts): higher than 20 μM
levels found to be cytotoxic (smooth muscle cells): higher than 20 μM
increase of collagen type 1 ECM deposition ([3]; 2.5 μM ascorbyl palmitate administered individually, compared to 1.25 μM): 135%
increase of collagen type 1 ECM deposition ([3]; 5 μM ascorbyl palmitate administered individually, compared to 1.25 μM): 189%
increase of collagen type 1 ECM deposition ([3]; 10 μM ascorbyl palmitate administered individually, compared to 1.25 μM): 184%
increase of collagen type 1 ECM deposition ([3]; 20 μM ascorbyl palmitate administered individually, compared to 1.25 μM): 212%

COC(=O)C1=C(C)NC(C)=C(C(=O)OC)C1c1ccccc1[N+](=O)[O-] [nifedipine]
decrease in ascorbyl palmitate dependent ECM deposition of collagen IV ([1]; 1.25 μM ascorbyl palmitate): 23.5%
decrease in ascorbyl palmitate dependent ECM deposition of collagen IV ([1]; 2.5 μM ascorbyl palmitate): 22.7%
decrease in ascorbyl palmitate dependent ECM deposition of collagen IV ([1]; 5 μM ascorbyl palmitate): 22%
decrease in ascorbyl palmitate dependent ECM deposition of collagen IV ([1]; 10 μM ascorbyl palmitate): 13.5%
decrease in ascorbyl palmitate dependent ECM deposition of collagen IV ([1]; 20 μM ascorbyl palmitate): 31.6%
reduction of ascorbic acid dependent deposition of collagen type IV to the ECM ([1]; 25 μM ascorbic acid): 36%
reduction of ascorbic acid dependent deposition of collagen type IV to the ECM ([1]; 100 μM ascorbic acid): 54%
reduction of ascorbic acid dependent deposition of collagen type IV to the ECM ([1]; 400 μM ascorbic acid): 43%
reduction of ascorbate-dependent intracellular collagen type 1 synthesis ([4]; 25 μM ascorbic acid): 61%
reduction of ascorbate-dependent intracellular collagen type 1 synthesis ([4]; 100 μM ascorbic acid): 49.1%
increase of intracellular collagen I compared to control ([4]; nifedipine with 400 μM ascorbic acid): 122%
reduction of ascorbate-dependent collagen type 1 synthesis ([4]; ascorbyl palmitate at 5 (unit not given)): 20.3%
reduction of ascorbate-dependent collagen type 1 synthesis ([4]; ascorbyl palmitate at 20 (unit not given)): 38%
reduction of ascorbate-dependent beta-actin intracellular content compared to control ([5]; 25 μM ascorbic acid): 29%
reduction of ascorbate-dependent beta-actin intracellular content compared to control ([5]; 100 μM ascorbic acid): 22.6%
reduction of ascorbate-dependent beta-actin intracellular content compared to control ([5]; 400 μM ascorbic acid): 5%
reduction of intracellular beta actin content ([5]; 5 μM ascorbyl palmitate): 22%
reduction of intracellular beta actin content ([5]; 20 μM ascorbyl palmitate): 23.6%
reduction of intracellular content of collagen type I normalized to beta actin content compared to the control ([6]; 25 μM ascorbic acid): 46%
reduction of intracellular content of collagen type I normalized to beta actin content compared to the control ([6]; 100 μM ascorbic acid): 34.4%
increase of collagen I (normalized to beta actin) compared to control ([6]; nifedipine, 400 μM ascorbic acid): 23%
effect on collagen I content (normalized to beta actin) ([6]; nifedipine, ascorbyl palmitate at 5 μM and 20 μM): no significant effect
effect on intracellular ascorbate levels [2]: no significant effect
decrease of intracellular ascorbate ([2]; 50 μM nifedipine, 100 μM ascorbic acid, 90 min): 61.5%
reduction of ascorbate intracellular content ([2]; 50 μM nifedipine, 400 μM ascorbic acid, 90 min): 67.7%
reduction of ascorbyl palmitate dependent deposition of collagen type 1 to the ECM ([3]; 1.25 μM ascorbyl palmitate): 25%
reduction of ascorbyl palmitate dependent deposition of collagen type 1 to the ECM ([3]; 2.5 μM ascorbyl palmitate): 38%
reduction of ascorbyl palmitate dependent deposition of collagen type 1 to the ECM ([3]; 5 μM ascorbyl palmitate): 27.5%
reduction of ascorbyl palmitate dependent deposition of collagen type 1 to the ECM ([3]; 10 μM ascorbyl palmitate): 11%
reduction of ascorbyl palmitate dependent deposition of collagen type 1 to the ECM ([3]; 20 μM ascorbyl palmitate): 26.5%
reduction of ascorbic acid dependent deposition of collagen type 1 to the ECM ([3]; 25 μM ascorbic acid): 62.3%
reduction of ascorbic acid dependent deposition of collagen type 1 to the ECM ([3]; 100 μM ascorbic acid): 41.8%
reduction of ascorbic acid dependent deposition of collagen type 1 to the ECM ([3]; 400 μM ascorbic acid): 16.5%

O=C1O[C@H]([C@@H](O)CO)C(O)=C1O [ascorbic acid]
increased collagen IV ECM deposition [1, 10]: 175%
increased collagen IV ECM deposition [1, 11]: 166%
excretion half-life ([7]; body stores depleted, by the onset of the first symptoms of scurvy): 83 days
renal resorption threshold (plasma level) ([7]; men): about 1.5 mg/dL
half-life of excretion in the urine ([7]; plasma concentrations larger than renal resorption threshold): about 30 minutes
renal resorption threshold (plasma level) ([7]; women): ~1.3 mg/dL
increase of collagen type 1 ECM deposition [3, 10]: 114%
increase of collagen type 1 ECM deposition [3, 11]: 176%

COc1cc(CNC(=O)CCCC/C=C/C(C)C)ccc1O [capsaicin]
inhibition of collagen type I deposition to the ECM [8]: slight, insignificant inhibition

COc1ccc(CCN(C)CCCC(C#N)(c2ccc(OC)c(OC)c2)C(C)C)cc1OC (stereo not drawn) [verapamil]
constitutive and platelet-derived growth factor-dependent collagen deposition in the ECM [9]: significantly decreased

C=C[C@H]1C[N@@]2CC[C@H]1C[C@@H]2[C@@H](O)c1ccnc2ccc(OC)cc12 [quinidine]
effects on ascorbic acid dependent collagen type I and type IV deposition in AoSMC ([3]; compared with nifedipine, data not shown): comparable results

COc1ccc([C@@H]2Sc3ccccc3N(CCN(C)C)C(=O)[C@@H]2OC(C)=O)cc1 [ditiazem]
inhibition of collagen type I deposition to the ECM [8]: up to 13.1%
constitutive and platelet-derived growth factor-dependent collagen deposition in the ECM [9]: significantly decreased
